Format in all cases: ADME, organism-based
Data set [1] is described as follows: Half life upon i.v. administration at the dose of 2 mg/kg in rat. More on the design: dose 2 mg/kg, route intravenous. The conditions noted are these: in vivo, iv.
A short description of data set [2]: Clearance upon i.v. administration at the dose of 2 mg/kg in rat. The conditions noted are these: in vivo, iv. More on the design: dose 2 mg/kg, route intravenous.
Data set [3] is described as follows: Volume distribution upon i.v. administration at the dose of 2 mg/kg in rat. More on the design: dose 2 mg/kg, route intravenous. The conditions noted are these: in vivo, iv.
Data set [4] can be described thus: Bioavailability in rats when administered 10 mg/kg orally. The conditions noted are these: rat, in vivo, po, read-out: Bioavailabiility.
Data set [5] can be described thus: Peak plasma concentration in rats when administered 10 mg/kg orally. On the set-up: dose 10 mg/kg, route oral. The conditions noted are these: rat, po.

As a reminder, the half-life is how long it takes for the measured level to halve. What is called clearance is the rate of elimination divided by the concentration. Broadly, the Vd is the apparent volume that relates the amount in the body to the concentration in plasma or blood. By Cmax is commonly meant the peak of the concentration-time curve.

With `C(#Cc1ccccn1)C1=CC(Oc2ccncc2)CCC1` (stereo not drawn), the half-life in data set [1] was 0.8 h. The compound further gave a clearance in data set [2] of 41 mL/min/kg. Also, the distribution volume (Vd) in data set [3] (read-out: Vd) is 1.2 L/kg.

In data set [1], `C(#Cc1ccccn1)C1=CCC(Nc2cccnc2)CC1` (stereo not drawn) showed a half-life of 0.5 h. This compound registered a clearance in data set [2] of 34 mL/min/kg. In addition, the Vd in data set [3] (read-out: Vd) stood at 1.4 L/kg.

On to `Cc1ccc(S(=O)(=O)N2CC=C(C#Cc3ccccn3)CC2)cc1`, for which, in data set [1], the T1/2 turned out to be 1.5 h. This compound also gave a Cl in data set [2] of 29 mL/min/kg. The compound also registered a distribution volume (Vd) in data set [3] of 14.7 L/kg.

In data set [1], `C(#Cc1ccccn1)C1=CCCCC1` had a half-life of 3.9 h. Moreover, the clearance in data set [2] was 45 mL/min/kg. Also, the Vd in data set [3] (read-out: Vd) turned out to be 9.1 L/kg.

Take `O=S(=O)(c1ccc(Br)cc1)N1CC=C(C#Cc2ccccn2)CC1`: in data set [4], the bioavailability came to 10%. Also, in data set [1], the half-life was 1.1 h. Also, the Cmax in data set [5] amounted to 20 nM. In addition, the clearance in data set [2] was 64 mL/min/kg. Moreover, the Vd in data set [3] (read-out: Vd) stood at 3.98 L/kg.

In data set [1], `Clc1cncc(OC2C=C(C#Cc3ccccn3)CCC2)c1` (stereo not drawn) gave a half-life of 4.8 h. In addition, in data set [2], the clearance worked out at 32 mL/min/kg. For the same compound, the Vd in data set [3] (read-out: Vd) stood at 7.2 L/kg.

On to `C(#Cc1ccccn1)C1=CC(Oc2cccnc2)CCC1` (stereo not drawn), for which, in data set [1], the half-life was 0.3 h. The compound also yielded a clearance in data set [2] of 94 mL/min/kg. Moreover, the Vd in data set [3] (read-out: Vd) was determined as 2.2 L/kg.

For the origin of these results see ChEMBL document CHEMBL1140392, “Cyclohexenyl- and dehydropiperidinyl-alkynyl pyridines as potent metabotropic glutamate subtype 5 (mGlu5) receptor antagonists” (Bioorg Med Chem Lett, 2005).
